This note sets out measurements from PubChem BioAssay AID623867 (Sanford-Burnham Center for Chemical Genomics, 2012).

Active and inactive are the calls of the source.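 How the source made its calls: active means mean IC50 of at most 10 µM; inactive means the rest.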

This assay deals with H9c2 cardiomyocytes, H2O2 injury protection, ATP luminescence, 2 h. Put plainly: H9c2 survival under peroxide injury – cell-based, hydrogen peroxide, ATP luminescence, SAR follow-up (AID 623867).
For `COc1ccc(-n2cc(-c3ccccc3)c3c(N4CCCC4)ncnc32)cc1`, the IC50 is > 79 µM (inactive).

Consider `Cc1ccc2cc(CN(C)S(=O)(=O)c3ccc(F)cc3)c(=O)[nH]c2c1`, for which the IC50 was > 79 µM (inactive).

Take `CC(C)CCNC(=O)C(c1ccc(O)cc1)N(C(=O)c1snc(C(N)=O)c1N)c1ccccc1F` (stereo not given): the IC50 is > 79 µM (inactive).

Consider `COc1cc(-c2cc(C(=O)Nc3cccc(C(C)=O)c3)c3ccccc3n2)cc(OC)c1OC`, for which the IC50 is 8.45 µM.

As for `COc1cccc(CN(C)C(=O)c2cc(-c3ccc(OC)c(OC)c3)nc3ccccc23)c1`, the IC50 is 10.7 µM (inactive).

As for `COc1ccc2c(c1OC)C(=O)N1c3ccccc3C(=O)N(c3cccc(Br)c3)C21` (stereo not given), the IC50 was 10.7 µM (inactive).

In the case of `CCCn1c(SC(C(=O)Nc2cccc(OC)c2)c2ccccc2)nc2ccccc2c1=O` (stereo not given), the IC50 was > 79 µM (inactive).

Take `COc1ccc(-n2cc(-c3ccccc3)c3c(N4CCCCC4)ncnc32)cc1`: the IC50 is > 79 µM (inactive).

As for `Cc1ccccc1N(C(=O)c1snc(C(N)=O)c1N)C(C(=O)NCc1ccc(F)cc1)c1ccc(O)cc1` (stereo not given), the IC50 is > 79 µM (inactive).

For `O=C(C(=O)N1CCCCC1)c1c(-c2ccccc2)[nH]c2ccccc12`, the IC50 is > 79 µM (inactive).

For `COc1ccc(N2C(=O)c3ccccc3N3C(=O)c4c(ccc(OC)c4OC)C23)cc1` (stereo not given), the IC50 is 23.4 µM (inactive).

With `COc1ccc(-c2cc(C(=O)NCc3ccccc3)c3ccccc3n2)cc1OC`, the IC50 is > 79 µM (inactive).

As to `COc1ccc2cc(C(=O)N3CCN(S(=O)(=O)c4cc(C)ccc4C)CC3)c(C)nc2c1`, the IC50 is > 79 µM (inactive).

On to `COc1ccc2c(=O)c(C(=O)N3CCN(S(=O)(=O)c4c(C)cc(C)cc4C)CC3)c[nH]c2c1`, for which the IC50 was > 79 µM (inactive).

For the compound `COc1cccc(CN(C)C(=O)c2cc(-c3ccccc3)nc3ccc(C)cc23)c1OC`, the IC50 was > 79 µM (inactive).

For the compound `COc1ccccc1N1C(=O)c2ccccc2N2C(=O)c3c(ccc(OC)c3OC)C12` (stereo not given), the IC50 is 30.4 µM (inactive).

As to `Cc1ccc(C)c(S(=O)(=O)N2CCN(C(=O)c3cc4cc(C)ccc4nc3C)CC2)c1`, the IC50 is > 79 µM (inactive).

`O=C1c2ccccc2N2C(=O)c3ccccc3[C@H]2N1c1ccccc1`: the IC50 was 29.4 µM (inactive).

Consider `Cc1ccc(-c2[nH]c3ccccc3c2C(=O)C(=O)N(C)C)cc1`, for which the IC50 was > 79 µM (inactive).

On to `CCN(CC)S(=O)(=O)c1cc(C(=O)N2CCN(Cc3cccc4cccnc34)CC2)ccc1C`, for which the IC50 is > 79 µM (inactive).

Regarding `Cc1ccc(S(=O)(=O)N(Cc2cccnc2)Cc2cc3ccccc3[nH]c2=O)cc1`, the IC50 is > 79 µM (inactive).

In the case of `COc1ccc2c(c1OC)C(=O)N1c3ccccc3C(=O)N(c3ccc(F)cc3)C21` (stereo not given), the IC50 was 33.2 µM (inactive).

`Cc1ccc2cc(CN(Cc3cccnc3)S(=O)(=O)c3ccc(F)cc3)c(=O)[nH]c2c1`: the IC50 is > 79 µM (inactive).

As for `O=C(C(=O)N1CCCC1)c1c(-c2ccccc2)[nH]c2ccccc12`, the IC50 was > 79 µM (inactive).

Turning to `COCCn1c(SC(C(=O)Nc2cc(C)ccc2C)c2ccccc2)nc2ccccc2c1=O` (stereo not given), the IC50 is > 79 µM (inactive).

In the case of `CCCN(CC(=O)Nc1ccccc1OC)C(=O)c1cc(-c2cccs2)nn1-c1ccccc1`, the IC50 is > 79 µM (inactive).

Take `COc1ccc2c(c1OC)C(=O)N1c3ccccc3C(=O)N(c3ccccc3C)C21` (stereo not given): the IC50 is 58.5 µM (inactive).

Regarding `COc1ccc(-n2cc(-c3ccccc3)c3c(NCc4ccccc4)ncnc32)cc1`, the IC50 is > 79 µM (inactive).

With `COc1ccc(-c2cc(C(=O)NCc3ccco3)c3ccccc3n2)cc1OC`, the IC50 turned out to be 41 µM.

As to `O=c1[nH]c2ccccc2cc1CN(Cc1ccco1)S(=O)(=O)c1ccc(F)cc1`, the IC50 was > 79 µM (inactive).

For `COc1ccc(-c2cc(C(=O)N(C)Cc3ccc(OC)c(OC)c3OC)c3ccccc3n2)cc1OC`, the IC50 is 10.1 µM (inactive).

Regarding `COc1cccc(NC(=O)CN(C)C(=O)c2cc(-c3cccs3)nn2-c2ccccc2)c1`, the IC50 was > 79 µM (inactive).

In the case of `CCN(CC)C(=O)C(=O)c1c(-c2ccccc2)[nH]c2ccccc12`, the IC50 was > 79 µM (inactive).

With `COc1ccc(-c2cc(C(=O)N(C)C)c3ccccc3n2)cc1OC`, the IC50 was > 79 µM (inactive).

As to `COCCNC(=O)C(c1ccc(O)cc1)N(C(=O)c1snc(C(N)=O)c1N)c1ccccc1F` (stereo not given), the IC50 was > 79 µM (inactive).

Usually IC50 stands for the concentration needed to halve the response being measured.
